According to patent US20240299542A1, “NATURAL KILLER CELLS ENGINEERED TO REDUCE OR ELIMINATE CBL-B AND USES THEREOF” (City of Hope, priority 2021, published 2024):

Legend:
Cbl-b [1] = test: Cbl-b mRNA by qRT-PCR after IL-15 or IL-2 treatment of primary human NK cells; assay type: cell-based; details: IL-15 (10 ng/ml) or IL-2 (150 IU/ml)
Cbl-b [2] = test: Cbl-b protein by immunoblot after stimulation of primary human NK cells with cytokines or activating antibody; assay type: cell-based
Procedure: (FIG. 1B) Enriched primary human NK cells were co-cultured with the K562 myeloid leukemia cell line (E/T ratio=10:1) for 24 h followed by immunoblot analysis. Summary data are from three independent experiments. (FIG. 1C) Primary human NK cells were treated with different concentrations of IL-15 for 24 h followed by immunoblot analysis (n=5 donors). (FIG. 1D) Equal numbers of purified CD56^+ human NK cells, CD56^bright NK cells and CD56^dim NK cells were sorted from peripheral blood mononuclear cells isolated by Ficoll, cultured and stimulated with IL-15 (20 ng/ml for 24 h) followed by immunoblot analysis. The data are representative of three independent experiments. Med, medium only; *P<0.05, **P<0.01 by two-tailed unpaired t-test or One-way ANOVA; ns, not significant. Data are presented as mean±SEM.
FIG. 6A Enriched primary human NK cells were cocultured with Molm-13 or MV4-11 leukemia cell lines (E/T ratio=10:1) for 24 h prior to assessment of Cbl-b by immunoblot analysis. […] FIG. 6B Enriched primary human NK cells were cultured overnight with an anti-NKG2D activating antibody (clone 1D11) (10 μg/ml) or mouse IgG (10 μg/ml) as control prior to assessment of Cbl-b by immunoblot analysis. […] Data are shown summarizes four independent experiments. […] Data are shown summarizes five independent experiments. FIG. 6E The expression of Cbl-b was assessed by qRT-PCR after primary human NK cells were incubated with K562 cells (E/T ratio=10:1) for 24 h. Data are shown summarizes five independent experiments. *P<0.05, **P<0.01, compared to the shortest time point. Data are presented as mean±SEM.
(§1) Immunoblotting. Cells were harvested and suspended in RIPA lysis buffer (Thermo Fisher Scientific) on ice for 20 minutes. Equal amount of protein was resolved by 5-15% Criterion TGX gel (Bio-Rad) and then transferred onto a Nitrocellulose (NC) or PVDF membrane (Thermo Fisher Scientific). The membrane was incubated with a primary antibody at 4° C. overnight and an IRDye secondary antibody (Li-COR Biosciences) for 1 hour at room temperature. The immunoblots were visualized with Odyssey CLx Imager (Li-COR Biosciences). Densitometric analysis was performed to quantify intensity of gel bands with Image J (National Institutes of Health).
We assessed the expression of Cbl-b protein in primary human NK cells enriched from the blood of healthy donors in response to 24-hour stimulation by different cytokines. […] Since certain tumor cells can trigger NK cell activation, we co-cultured NK cells for 24 h with different tumor cell lines in order to assess this effect on the expression of Cbl-b.

IFN-γ = test: Intracellular IFN-γ flow cytometry of NK cells pretreated with Mertk inhibitors; assay type: cell-based, human; details: for percentage of intracellular IFN-γ+ cells: 5 uM, 90 min pretreatment, then IL-15 (10 ng/ml) 24 h; for IFN-γ level lower than control with no inhibitor: in the presence of IL-15
Procedure: (§2) FIGS. 5A-5D depict the results of a study showing that Cbl-b interacts with and regulates phosphorylation of Mertk in primary human NK cells. (FIG. 5A) Representative intracellular flow cytometric analysis of the TAM family receptors expression in primary human NK cells. Summarized data are shown from 6 donors. IgG1 is the isotype for Tyro3 and Axl, while IgG2 for Mertk. (FIG. 5B) The level of Mertk phosphorylation and Cbl-b in Cbl-b siRNA- or Scr siRNA-transduced primary human NK was measured by immunoblot analysis. Data presented are representative of five independent experiments. […] Data presented are representative of 4 donors performed in a similar fashion and are summarized in the panel below the representative flow dot plots. (FIG. 5D) Primary NK cells were pretreated with the Mertk inhibitors UNC2550 or UNC2881 (5 uM) for 90 min prior to 30 min activation by IL-15 (10 ng/ml). Data presented are representative of 4 donors performed in a similar fashion. Scr-scrambled; *P<0.05; ns, not significant. Data presented as mean±SEM.
Flow cytometry. To determine protein cell surface expression via flow cytometry, cells were stained with monoclonal antibodies at room temperature for 20 minutes and washed with FACS buffer prior to analysis using a Fortessa X-20 flow cytometer (BD Biosciences). For IFN-γ intracellular flow cytometric analysis, […] GolgiPlug (BD Biosciences) was added for 4 h before cell harvest; cells were then permeabilized and fixed using a Cytofix/Cytoperm Fixation/Permeabilization Solution Kit (BD Biosciences), followed by analysis with a Fortessa X-20 flow cytometer. Intracellular flow cytometric analysis of Mertk was performed similarly except that GolgiPlug was not added. Data was analyzed by using Flowjo V10 software (Tree Star, Ashland, OR, USA).
The TAM receptor family consists of Tyro3, Axl and Mertk, all of which are expressed in mature mouse NK cells (25) and are molecular substrates for Cbl-b ubiquitylation both in vitro and in vivo (17). To investigate the possible relationship between Cbl-b and the TAM receptor family in primary human NK cells, we detected the expression of the three TAM receptor members in NK cells. […] However, the level of total mertk is low in human NK cells (FIG. 10B), preventing us to characterize the mechanism associated with the p-Mertk regulation by Cbl-b. Next, primary human NK cells were pretreated with or without Mertk inhibitors (UNC2550 or UNC2881), followed by IL-15 stimulation.

p-STAT5 = p-STAT5 by immunoblot in IL-15-activated NK cells pretreated with Mertk inhibitors; assay type: cell-based, human; details: 5 uM, 90 min pretreatment, then IL-15 (10 ng/ml) 30 min, vs no inhibitor
Procedure: as §2, with “(FIG. 5D) Primary NK cells were pretreated with the Mertk inhibitors UNC2550 or UNC2881 (5 uM) for 90 min prior to 30 min activation by IL-15 (10 ng/ml). Data presented are representative of 4 donors performed in a similar fashion. Scr-scrambled; *P<0.05; ns, not significant. Data presented as mean±SEM.” left out
Immunoblotting. […] Densitometric analysis was performed to quantify intensity of gel bands with Image J (National Institutes of Health).
The TAM receptor family consists of Tyro3, Axl and Mertk, all of which are expressed in mature mouse NK cells (25) and are molecular substrates for Cbl-b ubiquitylation both in vitro and in vivo (17). To investigate the possible relationship between Cbl-b and the TAM receptor family in primary human NK cells, we detected the expression of the three TAM receptor members in NK cells. […]

Cbl-b [3] = test: Cbl-b protein by immunoblot after inhibitor pretreatment and K562 co-culture of primary NK cells; assay type: cell-based, human; details: 10 uM, 90 min pretreatment, 24 h co-culture with K562 (E/T=10:1), vs vehicle control
Procedure: FIG. 7A Primary NK cells were pretreated with AZD1480 (10 uM), CP-690550 (10 uM) or Afuresertib (10 uM) for 90 min prior to a 24 h cocultured with K562 cells (E/T=10:1). The immunoblot data are representative of 3 donors in a similar fashion. Densitometric quantification assessing the ratio of Cbl-b protein levels to β-actin protein levels for 3 donors is summarized in FIG. 7B. *P<0.05, **P<0.01; ns, not significant. Data are presented as mean±SEM.
as §1
(§3) Since IL-15 utilizes select JAK-STAT proteins to initiate cellular activation, we pretreated primary NK cells with the JAK3 inhibitor CP-690550 (22) or the JAK1/2 inhibitor AZD1480 (23) in increasing concentrations prior to IL-15 stimulation then Cbl-b expression level was evaluated. […] As K562 cells were also able to induce expression of Cbl-b in primary human NK cells (FIG. 1B), we repeated the inhibitor experiments under the K562 cell stimulation.

Cbl-b [4] = test: Cbl-b protein by immunoblot after JAK or AKT inhibitor pretreatment and IL-15/IL-2 activation of primary NK cells; assay type: cell-based, human; details: 90 min pretreatment at various concentrations, then IL-15 (10 ng/ml) 24 h, vs vehicle control
Procedure: FIGS. 2A-2E depict the results of a study showing that JAK-STAT and AKT pathways mediate upregulation of Cbl-b in NK cells. (FIG. 2A) Primary human NK cells were pretreated with the JAK3 inhibitor CP-690550 and the JAK1/2 inhibitor AZD1480 at various concentrations for 90 min prior to a 24 h activation by IL15 (10 ng/ml). NK cells were then harvested for quantification of Cbl-b protein expression by immunoblot analysis. Data are representative of 6 donors performed in a similar fashion. Densitometric quantification assessing the ratio of the Cbl-b protein to β-actin protein levels for 6 donors is summarized in (FIG. 2B) and (FIG. 2C). […] Data are representative of 5 donors performed in a similar fashion. Densitometric quantification assessing the ratio of the Cbl-b protein levels to β-actin protein levels for 5 donors is summarized in (FIG. 2E). *P<0.05, **P<0.01, ***P<0.001 by One-way ANOVA or Student's two-tailed paired t-test. Data are presented as mean±SEM.
as §1, §3

Compound | percentage of intracellular IFN-γ+ cells (IFN-γ) [%] | IFN-γ level lower than control with no inhibitor (IFN-γ) | level of p-STAT5 (p-STAT5) | further results
IL-15: Recombinant human IL-15 protein obtained from National Institutes of Health | – | – | – | upregulation of Cbl-b mRNA at 24 h post stimulation (Cbl-b [1]; 24 h): sustained; time of peak Cbl-b mRNA (Cbl-b [1]; compared to unstimulated NK cells): 4 h; dose response of Cbl-b protein (Cbl-b [2]; different concentrations of IL-15, 24 h): did not find evidence of a dose response change; expression of Cbl-b protein (ratio to β-actin) (Cbl-b [2]; primary human NK cells, 24 h cytokine stimulation, compared to resting NK cells without cytokines): induced an increase in the expression of Cbl-b
UNC2550 | 5.49 | approximately 3 fold | decreased | –
C[C@@H]1CCN(C(=O)CC#N)C[C@@H]1N(C)c1ncnc2[nH]ccc12 [CP-690550] | – | – | – | Cbl-b expression after inhibitor pretreatment under K562 stimulation (Cbl-b [3]): only the AKT1/2/3 inhibitor Afuresertib rather than either of the two JAK inhibitors; expression of Cbl-b protein after inhibitor pretreatment (Cbl-b [4]): significant decrease
CCCCNc1ncc(C(=O)NCc2ccc(-n3ccnc3)cc2)c(NC2CCC(O)CC2)n1 (stereo not drawn) [UNC2881] | 5.49 | approximately 3 fold | decreased | –
